Assay results as given in US20220362330A1, “Compositions and Methods for Increasing Epithelial Barrier Function” (The Board of Trustees of the Leland Stanford Junior …, priority 2019, published 2022).

Tests used:
[1] = test system: genital mucosal permeability; assay: Human tissue permeability assay on biopsy specimens; parameters: species or system women
Description: To confirm the relevance of the mouse model findings, DMPA-mediated changes in mucosal permeability was explored with ectocervical biopsies from women using no hormonal contraceptive and again 1 month after they initiated DMPA.
[…] biopsy specimens obtained from women were placed in transport media, transferred into sterile 96-well plates, and incubated 45 minutes in a 20 μL solution of PBS containing LY and DR (at the same concentrations used in mouse studies). Tissue was likewise fixed and embedded as detailed for mice. Stratified squamous epithelium, lamina propria, and connective tissue were identified using light microscopy (at 100× magnification), while images obtained at 400× magnification were used to quantify penetration of LY into ectocervical tissue.

[2] = test system: vaginal microbiota / pro-inflammatory mediators; assay: Bacteria and inflammation in genital mucosa; assay type: in vivo, mice
From the text: While prior clinical studies identified increased inflammation in the genital tracts of women using DMPA, the underlying mechanism for this effect had been undefined. Because DMPA increased genital mucosal permeability, it was posited DMPA increases inflammation by promoting entry of the vaginal microbiota into mucosal tissue.

[3] = test system: upstream regulators EFNA3 and ROCK2; assay: Genome-wide gene expression and pathway analysis of vaginal tissue; assay type: in vivo; conditions: DMPA-treated vs estrus-stage mice
Description: The above results established changes that occur in genital mucosa of women initiating DMPA are recapitulated in DMPA-treated mice, and these that changes include lower expression of the cell-cell adhesion molecule DSG1 and increased genital mucosal permeability. To investigate mechanisms for DMPA-mediated downregulation of DSG1, genome-wide gene expression studies were performed with vaginal tissue from estrus-stage mice (i.e., mice resistant to genital HSV infection) and DMPA-treated mice (i.e., mice highly susceptible to this virus). […] EFNA molecules are involved in pathways that induce DSG1 expression and regulate epithelial cell responses and formation of intercellular adhesion complexes, and Eph receptors stimulate ROCK2-mediated actinomyosin contractility that increases keratinocyte differentiation via DSG1 upregulation. These gene expression analyses thus identified a potential mechanism by which progestins alter E-regulated expression of EFNA3 and ROCK2 and levels of DSG1. As EFNA3, DSG1, and ROCK2 are basally expressed in human genital epithelium, capacity of this E-regulated pathway to promote genital mucosal integrity in mice may also extend to results seen in the human female genital tract.

[4] = test system: genital mucosal barrier; assay: Murine tissue permeability assay, low molecular weight fluorescent molecules given intravaginally; assay type: in vivo, mice
Description: Effects of progestins on genital mucosal barrier permeability were evaluated by intravaginally (ivag) administering 457 Da and 70 KDa-sized fluorescent molecules to mice in estrus or diestrus-stage or after DMPA or LNG treatment. Mice were grouped as follows: untreated in estrus, untreated in diestrus, DMPA treated, or LNG treated. The mice were intravaginally administered a PBS solution containing Lucifer yellow (457 Da) and Texas-Red-conjugated dextran (70 KDa). Animals were euthanized 45 minutes later to assess vaginal tissue penetration of these molecules by confocal microscopy. […] Mucosal permeability was increased moderately by diestrus, but dramatically by DMPA or LNG. Conversely, permeability increases were negligible in estrus-stage mice and mice treated with MePRDL or DMPA and RU486. This indicates exogenous progestins increase genital mucosal permeability.
To evaluate mucosal permeability to low molecular weight molecules, indicated groups of mice were sedated, and 10 μL of a PBS solution containing 62.5 μg of dextran Texas-Red® (DR) (MW=70,000 Da) and 50 μg of Lucifer yellow CH, lithium salt (LY) (MW=457.2 Da) (both from Life Technologies) administered intravaginally. 45 minutes later, mice were euthanized, and excised vaginal tissue fixed in formaldehyde. Fixed tissue was embedded in agarose, and 200-300 μm specimens were sectioned with a vibratome. After counterstaining with 4,6-diamidino-2-phenylindole (DAPI), confocal microscopy images were acquired by sequential scanning to prevent fluorescence crossover.

[5] = test system: genital mucosa; assay: Entry of activated hPBMCs into vaginal tissue of humanized mice; assay type: in vivo, hPBMC-engrafted NSG mice; conditions: CFSE-labeled activated hPBMCs ivag, 15 h; DMPA vs DMPA and E cream
Description: Because mice treated with DMPA and E were HSV-2 resistant and DMPA facilitated entry of leukocytes into vaginal tissue, it was posited that exogenous E blocks HIV-1 acquisition in a humanized mouse model of cell-associated HIV transmission. Human PBMC (hPBMCs)-engrafted NSG mice treated with DMPA or DMPA and E cream were ivag inoculated with CFSE-labeled activated hPBMCs. 15 h later, entry of these cells into vaginal tissue was examined by confocal microscopy. […] Humanized NSG mice treated as described above were also ivag infected with cell-associated HIV-1 (10^6 hPBMCs infected with HIV-1 Ba-L). 10 days later, serum was collected to quantify HIV-1 load via qRT-PCR.
To evaluate mucosal permeability to activated leukocytes, 10^6 human peripheral blood mononuclear cells (hPBMC)/ml were plated in RPMI-1640 supplemented with 10% FBS, 2 mM L-glutamine, 1 mM sodium pyruvate, non-essential amino acids, 50 μM 2-mercaptoethanol, 100 U/ml penicillin, 100 μg/ml streptomycin and 50 μg/ml gentamycin (Mediatech, Manassas, Va.) (henceforth termed complete medium). Plated cells were stimulated for 48 hours with 5 μg/ml of phytohemagglutinin (PHA) (Sigma-Aldrich, St. Louis Mo.), centrifuged, re-suspended (2×10^6 cells/ml) in complete media supplemented with 10 IU/ml recombinant human IL-2 (rhIL-2) (PeproTech, Rocky Hill, N.J.), and incubated another 5 days. […]

[6] = test system: genital mucosal barrier; assay: Murine tissue permeability assay, low molecular weight fluorescent molecules given intravaginally; assay type: in vivo, mice; conditions: germ-free mice
[7] = DMPA-treated vs. estrus-stage mice

Q: Which mucosal permeability ([1]; specimens collected after initiating hormonal contraceptive) does the source give for `CC(=O)O[C@]1(C(C)=O)CC[C@H]2[C@@H]3C[C@H](C)C4=CC(=O)CC[C@]4(C)[C@H]3CC[C@@]21C` [DMPA] here?
A: The mucosal permeability was “increased mucosal permeability”.

Q: What about the “correlation between serum DMPA levels and genital mucosal permeability” value ([1]; women) of the same compound?
A: The value was “strong positive correlation”.

Q: And the “Gram-negative bacteria in the mucosa” value [2, 7]?
A: Its value is “more Gram-negative bacteria”.

Q: And the “levels of pro-inflammatory mediators in the mucosa” value [2, 7]?
A: The value was “higher levels of pro-inflammatory mediators”.

Q: What about the inflammation ([2]; germ-free mice) of the same compound?
A: Its inflammation is “not inflammation”.

Q: And the “effect on signaling pathways (pathway analysis)” value [3]?
A: The value was “inhibition of signaling pathways that involve ephrin-A3 (EFNA3) and ROCK2”.

Q: What about the “Expr Log Ratio” value ([3]; upstream regulator EFNA3) of the same compound?
A: The value was −2.593.

Q: What about the “penetration of the 457 Da molecules into vaginal tissue” value ([4]; confocal images, 45 minutes after ivag administration) of the same compound?
A: Its value is “greatest penetration”.

Q: And the Mucosal permeability increase ([4]; mice, ivag Lucifer yellow (457 Da) and Texas-Red dextran (70 KDa), 45 minutes, confocal microscopy)?
A: The Mucosal permeability increase was “dramatically”.

Q: And the “penetration of activated hPBMCs into genital mucosa” value [5]?
A: Its value is “more readily penetrated the genital mucosa”.

Q: And the permeability [6]?
A: Its permeability is “increased permeability”.
